Measurements taken from US6358885B1, “Substituted phenylheterocyclic herbicides” (Mississippi State University, priority 1992, dated 2002).

Tests used:
duck salad = experiment: Test C flood test plant response rating 0 to 100; format: in vivo, Heteranthera limosa
Summary of the method: (§1)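 Compounds in non-phytotoxic solvent applied preemergence to sandy loam one day after planting, postemergence at the 1–4 leaf stage, or to ~2.5 cm floodwater over silt loam.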

corn = experiment: Test C preemergence/postemergence greenhouse plant response rating 0 to 100; format: in vivo, Zea mays; details: for Plant response rating, Corn: 125 g/ha, 0 to 100 scale
Summary of the method: as §1

bedstraw = experiment: as above; format: in vivo, Galium aparine; details: for Plant response rating, Bedstraw: 125 g/ha, 0 to 100 scale
Summary of the method: as §1

giant foxtail = experiment: as above; format: in vivo, Setaria faberii; details: for Plant response rating, Giant foxtail: 125 g/ha, 0 to 100 scale
Summary of the method: as §1

wild buckwheat = experiment: Test B preemergence/postemergence greenhouse plant response rating 0 to 10; format: in vivo, Polygonum convolvulus; details: 0 to 10 scale
Summary of the method: (§2)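 Planted seeds are treated preemergence with compound dissolved in a non-phytotoxic solvent, while postemergence applications go onto plants of two to eighteen cm. Plants stay in the greenhouse twelve to sixteen days and are then rated visually relative to controls.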

rice [1] = experiment: as above; format: in vivo, Oryza sativa; details: 0 to 10 scale
Summary of the method: as §2

soybean = experiment: as above; format: in vivo, Glycine max; details: 0 to 10 scale
Summary of the method: as §2

pigweed = experiment: Test C preemergence/postemergence greenhouse plant response rating 0 to 100; format: in vivo, Amaranthusretroflexus; details: for Plant response rating Pigweed: 125 g/ha, 0 to 100 scale
Summary of the method: as §1

sugar beet = experiment: as above; format: in vivo, Beta vulgaris; details: for Plant response rating, Sugar beet: 125 g/ha, 0 to 100 scale
Summary of the method: as §1

velvetleaf = experiment: as above; format: in vivo, Abutilon theophrasti; details: for Plant response rating, Velvetleaf: 125 g/ha, 0 to 100 scale
Summary of the method: as §1

cotton = experiment: as above; format: in vivo, Gossypium hirsutum; details: for Plant response rating, Cotton: 125 g/ha, 0 to 100 scale
Summary of the method: as §1

blackgrass = experiment: as above; format: in vivo, Alopecurus myosuroides; details: for Plant response rating, Blackgrass: 125 g/ha, 0 to 100 scale
Summary of the method: as §1

cocklebur = experiment: Test B preemergence/postemergence greenhouse plant response rating 0 to 10; format: in vivo, Xanthium pensylvanicum; details: 0 to 10 scale
Summary of the method: as §2

chickweed = experiment: Test C preemergence/postemergence greenhouse plant response rating 0 to 100; format: in vivo, Stellaria media; details: PREEMERGENCE
Summary of the method: as §1

rice [2] = experiment: Test C flood test plant response rating 0 to 100; format: in vivo, Oryza sativa
Summary of the method: as §1

umbrella sedge = experiment: Test C flood test plant response rating 0 to 100; format: in vivo, Cyperus difformis
Summary of the method: as §1

purple nutsedge = experiment: Test B preemergence/postemergence greenhouse plant response rating 0 to 10; format: in vivo, Cyperus rotundus; details: 0 to 10 scale
Summary of the method: as §2

[3] = POSTEMERGENCE section, flood test, Rate 2 g/ha
[4] = Rate 8 g/ha, under POSTEMERGENCE head (flood test species)
[5] = Rate 31 g/ha, under POSTEMERGENCE head (flood test species)
[6] = flood test species listed under POSTEMERGENCE, 125 g/ha, 0 to 100 scale

Fc1cc(Cl)ccc1-c1nn2c(c1Br)CCCC2 [Compound 52]
40: Plant response rating (0 to 100), Corn (corn; Rate 31 g/ha, POSTEMERGENCE) | Plant response rating (0 to 100), Giant foxtail (giant foxtail; Rate 8 g/ha, POSTEMERGENCE) | Plant response rating (0 to 100), Blackgrass (blackgrass; Rate 31 g/ha, POSTEMERGENCE)
3: Plant response rating, Nutsedge (purple nutsedge; POSTEMERGENCE, Rate 50 g/ha)
85: Plant response rating Duck salad (duck salad; [6]) | Plant response rating, Giant foxtail (giant foxtail; POSTEMERGENCE)
95: Plant response rating (0 to 100), Cotton (cotton; Rate 8 g/ha, POSTEMERGENCE) | Plant response rating (0 to 100), Cotton (cotton; Rate 31 g/ha, POSTEMERGENCE)
8: Plant response rating, Soybean (soybean; Rate 200 g/ha, POSTEMERGENCE) | Plant response rating, Cocklebur (cocklebur; POSTEMERGENCE, Rate 200 g/ha)
100: Plant response rating, Bedstraw (bedstraw; POSTEMERGENCE) | Plant response rating Pigweed (pigweed; POSTEMERGENCE) | Plant response rating Pigweed (pigweed; PREEMERGENCE) | Plant response rating (0 to 100), Pigweed (pigweed; Rate 31 g/ha, PREEMERGENCE) | Plant response rating, Sugar beet (sugar beet; POSTEMERGENCE) | Plant response rating, Sugar beet (sugar beet; PREEMERGENCE) | Plant response rating (0 to 100), Sugar beet (sugar beet; Rate 31 g/ha, POSTEMERGENCE) | Plant response rating, Velvetleaf (velvetleaf; POSTEMERGENCE) | Plant response rating, Velvetleaf (velvetleaf; PREEMERGENCE) | Plant response rating (0 to 100), Velvetleaf (velvetleaf; Rate 31 g/ha, POSTEMERGENCE) | Plant response rating (0 to 100), Velvetleaf (velvetleaf; Rate 31 g/ha, PREEMERGENCE) | Plant response rating, Cotton (cotton; POSTEMERGENCE)
70: Plant response rating (0 to 100), Bedstraw (bedstraw; Rate 8 g/ha, POSTEMERGENCE) | Plant response rating (0 to 100), Bedstraw (bedstraw; Rate 31 g/ha, POSTEMERGENCE) | Plant response rating (0 to 100), Sugar beet (sugar beet; POSTEMERGENCE, Rate 2 g/ha) | Plant response rating (0 to 100), Sugar beet (sugar beet; Rate 8 g/ha, POSTEMERGENCE) | Plant response rating (0 to 100), Sugar beet (sugar beet; Rate 31 g/ha, PREEMERGENCE) | Plant response rating (0 to 100), Cotton (cotton; POSTEMERGENCE, Rate 2 g/ha)
50: Plant response rating, Corn (corn; POSTEMERGENCE) | Plant response rating (0 to 100), Bedstraw (bedstraw; POSTEMERGENCE, Rate 2 g/ha) | Plant response rating (0 to 100), Giant foxtail (giant foxtail; Rate 31 g/ha, POSTEMERGENCE) | Plant response rating (0 to 100), Pigweed (pigweed; Rate 8 g/ha, POSTEMERGENCE) | Plant response rating (0 to 100), Pigweed (pigweed; Rate 8 g/ha, PREEMERGENCE) | Plant response rating (0 to 100), Pigweed (pigweed; Rate 31 g/ha, POSTEMERGENCE) | Plant response rating (0 to 100), Velvetleaf (velvetleaf; POSTEMERGENCE, Rate 2 g/ha) | Plant response rating, Blackgrass (blackgrass; PREEMERGENCE)
20: Plant response rating (0 to 100), Duck salad (duck salad; [5]) | Plant response rating (0 to 100), Corn (corn; POSTEMERGENCE, Rate 2 g/ha) | Plant response rating (0 to 100), Giant foxtail (giant foxtail; POSTEMERGENCE, Rate 2 g/ha) | Plant response rating (0 to 100), Pigweed (pigweed; POSTEMERGENCE, Rate 2 g/ha) | Plant response rating (0 to 100), Blackgrass (blackgrass; Rate 8 g/ha, POSTEMERGENCE) | Plant response rating, Chickweed (chickweed; 125 g/ha, 0 to 100 scale) | Plant response rating (0 to 100), Rice Japonica (rice [2]; [4]) | Plant response rating (0 to 100), Umbrella sedge (umbrella sedge; [4])
90: Plant response rating, Giant foxtail (giant foxtail; PREEMERGENCE) | Plant response rating (0 to 100), Velvetleaf (velvetleaf; Rate 8 g/ha, POSTEMERGENCE)
0: Plant response rating (0 to 100), Duck salad (duck salad; [3]) | Plant response rating (0 to 100), Duck salad (duck salad; [4]) | Plant response rating, Corn (corn; PREEMERGENCE) | Plant response rating (0 to 100), Corn (corn; PREEMERGENCE, Rate 2 g/ha) | Plant response rating (0 to 100), Corn (corn; Rate 8 g/ha, PREEMERGENCE) | Plant response rating (0 to 100), Corn (corn; Rate 31 g/ha, PREEMERGENCE) | Plant response rating (0 to 100), Bedstraw (bedstraw; PREEMERGENCE, Rate 2 g/ha) | Plant response rating (0 to 100), Bedstraw (bedstraw; Rate 8 g/ha, PREEMERGENCE) | Plant response rating (0 to 100), Giant foxtail (giant foxtail; PREEMERGENCE, Rate 2 g/ha) | Plant response rating, Rice (rice [1]; PREEMERGENCE, Rate 50 g/ha) | Plant response rating, Soybean (soybean; PREEMERGENCE, Rate 50 g/ha) | Plant response rating, Soybean (soybean; Rate 200 g/ha, PREEMERGENCE) | Plant response rating (0 to 100), Pigweed (pigweed; PREEMERGENCE, Rate 2 g/ha) | Plant response rating (0 to 100), Sugar beet (sugar beet; PREEMERGENCE, Rate 2 g/ha) | Plant response rating (0 to 100), Sugar beet (sugar beet; Rate 8 g/ha, PREEMERGENCE) | Plant response rating (0 to 100), Velvetleaf (velvetleaf; PREEMERGENCE, Rate 2 g/ha) | Plant response rating, Cotton (cotton; PREEMERGENCE) | Plant response rating (0 to 100), Cotton (cotton; PREEMERGENCE, Rate 2 g/ha) | Plant response rating (0 to 100), Cotton (cotton; Rate 8 g/ha, PREEMERGENCE) | Plant response rating (0 to 100), Cotton (cotton; Rate 31 g/ha, PREEMERGENCE) | Plant response rating (0 to 100), Blackgrass (blackgrass; PREEMERGENCE, Rate 2 g/ha) | Plant response rating (0 to 100), Blackgrass (blackgrass; Rate 8 g/ha, PREEMERGENCE) | Plant response rating (0 to 100), Blackgrass (blackgrass; Rate 31 g/ha, PREEMERGENCE) | Plant response rating, Cocklebur (cocklebur; PREEMERGENCE, Rate 50 g/ha) | Plant response rating, Cocklebur (cocklebur; Rate 200 g/ha, PREEMERGENCE) | Plant response rating (0 to 100), Chickweed (chickweed; Rate 2 g/ha) | Plant response rating (0 to 100), Chickweed (chickweed; Rate 8 g/ha) | Plant response rating (0 to 100), Chickweed (chickweed; Rate 31 g/ha) | Plant response rating (0 to 100), Rice Japonica (rice [2]; [3]) | Plant response rating, Nutsedge (purple nutsedge; PREEMERGENCE, Rate 50 g/ha) | Plant response rating, Nutsedge (purple nutsedge; Rate 200 g/ha, PREEMERGENCE)
30: Plant response rating (0 to 100), Corn (corn; Rate 8 g/ha, POSTEMERGENCE) | Plant response rating (0 to 100), Giant foxtail (giant foxtail; Rate 31 g/ha, PREEMERGENCE) | Plant response rating (0 to 100), Velvetleaf (velvetleaf; Rate 8 g/ha, PREEMERGENCE)
80: Plant response rating, Bedstraw (bedstraw; PREEMERGENCE) | Plant response rating Umbrella sedge (umbrella sedge; [6])
45: Plant response rating (0 to 100), Rice Japonica (rice [2]; [5])
60: Plant response rating, Blackgrass (blackgrass; POSTEMERGENCE) | Plant response rating Rice Japonica (rice [2]; [6])
1: Plant response rating, Rice (rice [1]; Rate 200 g/ha, PREEMERGENCE)
25: Plant response rating (0 to 100), Umbrella sedge (umbrella sedge; [5])
5: Plant response rating, Nutsedge (purple nutsedge; Rate 200 g/ha, POSTEMERGENCE)
7: Plant response rating, Wild buckwheat (wild buckwheat; PREEMERGENCE, Rate 50 g/ha)
4: Plant response rating, Rice (rice [1]; POSTEMERGENCE, Rate 50 g/ha)
10: Plant response rating (0 to 100), Bedstraw (bedstraw; Rate 31 g/ha, PREEMERGENCE) | Plant response rating (0 to 100), Giant foxtail (giant foxtail; Rate 8 g/ha, PREEMERGENCE) | Plant response rating, Wild buckwheat (wild buckwheat; POSTEMERGENCE, Rate 50 g/ha) | Plant response rating, Wild buckwheat (wild buckwheat; Rate 200 g/ha, POSTEMERGENCE) | Plant response rating, Wild buckwheat (wild buckwheat; Rate 200 g/ha, PREEMERGENCE) | Plant response rating, Soybean (soybean; POSTEMERGENCE, Rate 50 g/ha) | Plant response rating (0 to 100), Blackgrass (blackgrass; POSTEMERGENCE, Rate 2 g/ha) | Plant response rating (0 to 100), Umbrella sedge (umbrella sedge; [3])
6: Plant response rating, Rice (rice [1]; Rate 200 g/ha, POSTEMERGENCE) | Plant response rating, Cocklebur (cocklebur; POSTEMERGENCE, Rate 50 g/ha)
